Source: PubChem BioAssay (NCI)
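At the GI50, growth is halved. TGI denotes the concentration required for complete inhibition of growth.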

Legend:
Test in all cases: NCI-60 cell line screen, 384-well format
[1] = test system: SNB-75 CNS
[2] = test system: HCC-2998 colon
[3] = test system: EKVX NSCLC
[4] = test system: SN12C renal
[5] = test system: SF-268 CNS
[6] = test system: RXF 393 renal
[7] = test system: SW-620 colon
[8] = test system: HS 578T breast
[9] = test system: CCRF-CEM leukemia
[10] = test system: PC-3 prostate
[11] = test system: NCI-H226 lung
[12] = test system: SK-MEL-5 melanoma
[13] = test system: HT29 colon
[14] = test system: A498 renal
[15] = test system: MALME-3M melanoma
[16] = test system: KM12 colon
[17] = test system: BT-549 breast
[18] = test system: T-47D breast
[19] = test system: HOP-92 NSCLC
[20] = test system: SK-OV-3 ovarian
[21] = test system: NCI-H322M lung
[22] = test system: TK-10 renal
[23] = test system: NCI-H460 NSCLC
[24] = test system: MDA-MB-468 breast
[25] = test system: SF-539 CNS
[26] = test system: CAKI-1 renal
[27] = test system: A549 NSCLC
[28] = test system: COLO 205 colon
[29] = test system: DU-145 prostate
[30] = test system: NCI-H23 lung
[31] = test system: MOLT-4 leukemia
[32] = test system: K-562 leukemia
[33] = test system: NCI-H522 lung
[34] = test system: OVCAR-8 ovarian
[35] = test system: UACC-257 melanoma
[36] = test system: NCI/ADR-RES ovarian
[37] = test system: MCF7 breast
[38] = test system: SK-MEL-28 melanoma
[39] = test system: U251 glioblastoma
[40] = test system: UO-31 renal
[41] = test system: SR leukemia
[42] = test system: MDA-MB-231 breast
[43] = test system: MDA-MB-435 melanoma
[44] = test system: OVCAR-3 ovarian
[45] = test system: LOX IMVI melanoma
[46] = test system: UACC-62 melanoma
[47] = test system: 786-0 renal
[48] = test system: HCT-15 colon
[49] = test system: HOP-62 NSCLC
[50] = test system: RPMI-8226 leukemia
[51] = test system: ACHN renal
[52] = test system: M14 melanoma
[53] = test system: OVCAR-5 ovarian
[54] = test system: HL-60(TB) leukemia
[55] = test system: SF-295 CNS
[56] = test system: OVCAR-4 ovarian
[57] = test system: SNB-19 CNS
[58] = test system: IGROV1 ovarian

Cc1cc(N2CCOCC2)cc2[nH]c(-c3c(NC[C@@H](O)c4cccc(Cl)c4)cc[nH]c3=O)nc12
GI50 [1]: 1840 nM | TGI [1]: 3590 nM | GI50 [2]: 1170 nM | TGI [2]: 2530 nM | GI50 [3]: 663 nM | TGI [3]: 2710 nM | GI50 [4]: 715 nM | TGI [4]: 2420 nM | GI50 [5]: 1760 nM | TGI [5]: 4770 nM | GI50 [6]: 1440 nM | TGI [6]: 2910 nM | GI50 [7]: 1760 nM | TGI [7]: 11300 nM | GI50 [8]: 1500 nM | TGI [8]: 3070 nM | GI50 [9]: 2110 nM | TGI [9]: 3940 nM | GI50 [10]: 3180 nM | TGI [10]: 13800 nM | GI50 [11]: 197 nM | TGI [11]: 1760 nM | GI50 [12]: 1320 nM | TGI [12]: 4140 nM | GI50 [13]: 203 nM | TGI [13]: 1640 nM | GI50 [14]: 2190 nM | TGI [14]: 4840 nM | GI50 [15]: 415 nM | TGI [15]: 3990 nM | GI50 [16]: 16.3 nM | TGI [16]: 121 nM | GI50 [17]: 1830 nM | TGI [17]: 4760 nM | GI50 [18]: 3840 nM | TGI [18]: 16200 nM | GI50 [19]: 477 nM | TGI [19]: 1920 nM | GI50 [20]: 1630 nM | TGI [20]: 5780 nM | GI50 [21]: 1880 nM | TGI [21]: 11300 nM | GI50 [22]: 1760 nM | TGI [22]: 4730 nM | GI50 [23]: 607 nM | TGI [23]: 2760 nM | GI50 [24]: 2230 nM | TGI [24]: 4730 nM | GI50 [25]: 1520 nM | TGI [25]: 2920 nM | GI50 [26]: 1770 nM | TGI [26]: 4290 nM | GI50 [27]: 1540 nM | TGI [27]: 5240 nM | GI50 [28]: 243 nM | TGI [28]: 1030 nM | GI50 [29]: 1740 nM | TGI [29]: 4580 nM | GI50 [30]: 234 nM | TGI [30]: 2640 nM | GI50 [31]: 1150 nM | TGI [31]: 2500 nM | GI50 [32]: 1810 nM | TGI [32]: 4120 nM | GI50 [33]: 1530 nM | TGI [33]: 3830 nM | GI50 [34]: 3290 nM | TGI [34]: 11100 nM | GI50 [35]: 2170 nM | TGI [35]: 9080 nM | GI50 [36]: 3280 nM | TGI [36]: 11100 nM | GI50 [37]: 244 nM | TGI [37]: 11600 nM | GI50 [38]: 1250 nM | TGI [38]: 6950 nM | GI50 [39]: 3300 nM | TGI [39]: 12100 nM | GI50 [40]: 1780 nM | TGI [40]: 5010 nM | GI50 [41]: 1150 nM | TGI [41]: 2390 nM | GI50 [42]: 2030 nM | TGI [42]: 10400 nM | GI50 [43]: 691 nM | TGI [43]: 3560 nM | GI50 [44]: 2880 nM | TGI [44]: 12500 nM | GI50 [45]: 845 nM | TGI [45]: 2070 nM | GI50 [46]: 2510 nM | TGI [46]: 11700 nM | GI50 [47]: 1830 nM | TGI [47]: 4360 nM | GI50 [48]: 1960 nM | TGI [48]: 10100 nM | GI50 [49]: 2480 nM | TGI [49]: 9040 nM | GI50 [50]: 1560 nM | TGI [50]: 3130 nM | GI50 [51]: 1510 nM | TGI [51]: 9760 nM | GI50 [52]: 735 nM | TGI [52]: 5440 nM | GI50 [53]: 831 nM | TGI [53]: 4470 nM | GI50 [54]: 85.6 nM | TGI [54]: 1100 nM | GI50 [55]: 2440 nM | TGI [55]: 7730 nM | GI50 [56]: 1830 nM | TGI [56]: 6990 nM | GI50 [57]: 2790 nM | TGI [57]: 8230 nM | GI50 [58]: 1340 nM | TGI [58]: 3260 nM
